Measurements published in ChEMBL document CHEMBL4665678, “Overview of AKR1C3: Inhibitor Achievements and Disease Insights” (J Med Chem, 2020).
Residue numbers refer to the chain shown, from its start. One block for each molecule: values may come before it.

Assays:
[1] = target: T1, Aldo-keto reductase family 1 member C3 (Homo sapiens, UniProt P42330); test: Inhibition of human AKR1C3 expressed in Escherichia coli incubated for 30 mins in presence of NADPH regeneration system by UHPLC analysis; settings: for Ki: read-out: Ki
T1 sequence (P42330 whole entry): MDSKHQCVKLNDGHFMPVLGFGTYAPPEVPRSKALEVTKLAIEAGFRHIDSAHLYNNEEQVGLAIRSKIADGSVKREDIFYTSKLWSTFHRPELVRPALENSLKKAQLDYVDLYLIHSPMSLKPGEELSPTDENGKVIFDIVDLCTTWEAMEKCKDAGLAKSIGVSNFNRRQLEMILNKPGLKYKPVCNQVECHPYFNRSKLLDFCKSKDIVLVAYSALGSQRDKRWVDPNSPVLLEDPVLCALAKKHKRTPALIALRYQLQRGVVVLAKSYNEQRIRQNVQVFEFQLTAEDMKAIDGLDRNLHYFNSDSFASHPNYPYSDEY

[2] = target: T2, Aldo-keto reductase family 1 member C2 (Homo sapiens, UniProt P52895); test: Inhibition of human AKR1C2 using S-tetralol as substrate in presence of NADP by fluorescence method
T2 sequence (P52895 whole entry): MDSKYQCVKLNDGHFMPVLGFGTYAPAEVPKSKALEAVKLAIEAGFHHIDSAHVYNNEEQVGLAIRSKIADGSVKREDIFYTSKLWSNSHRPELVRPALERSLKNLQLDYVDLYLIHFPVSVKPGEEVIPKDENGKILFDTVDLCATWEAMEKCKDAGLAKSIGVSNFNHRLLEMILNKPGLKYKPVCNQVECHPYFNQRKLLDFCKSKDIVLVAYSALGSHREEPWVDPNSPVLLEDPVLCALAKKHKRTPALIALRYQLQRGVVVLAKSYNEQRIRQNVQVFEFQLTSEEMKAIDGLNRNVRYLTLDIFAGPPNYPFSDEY

[3] = target: T1, Aldo-keto reductase family 1 member C3; test: Inhibition of human AKR1C3 using S-tetralol as substrate in presence of NADP by fluorescence method
[4] = target: T3, Aldo-keto reductase family 1 member C1 (Homo sapiens, UniProt Q04828); test: Inhibition of human AKR1C1 using S-tetralol as substrate in presence of NADP by fluorescence method
T3 sequence (Q04828 whole entry): T2 sequence (P52895 whole entry) with V38T, H47R, V54L, S87C, M151V, H170R, L172Q

[5] = target: T4, Aldo-keto reductase family 1 member C4 (Homo sapiens, UniProt P17516); test: Inhibition of human AKR1C4 using S-tetralol as substrate in presence of NADP by fluorescence method
T4 sequence (P17516 whole entry): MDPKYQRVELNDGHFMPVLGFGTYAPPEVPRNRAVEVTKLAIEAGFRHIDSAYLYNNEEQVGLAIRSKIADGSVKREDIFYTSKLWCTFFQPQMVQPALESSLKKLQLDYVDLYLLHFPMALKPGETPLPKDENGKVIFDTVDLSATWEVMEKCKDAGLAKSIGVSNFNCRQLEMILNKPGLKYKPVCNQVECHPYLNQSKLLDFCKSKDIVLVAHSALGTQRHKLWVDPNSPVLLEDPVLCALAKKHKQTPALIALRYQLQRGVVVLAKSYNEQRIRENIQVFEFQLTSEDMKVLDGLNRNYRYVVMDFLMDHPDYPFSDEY

[6] = target: T1, Aldo-keto reductase family 1 member C3; test: Inhibition of human AKR1C3 expressed in Escherichia coli BL21(DE3) pLysS cells using S-tetralol as substrate
[7] = target: T1, Aldo-keto reductase family 1 member C3; test: Inhibition of human AKR1C3 expressed in Escherichia coli BL21(DE3) pLysS cells using 9,10-phenanthrenequinone as substrate
[8] = target: T5, Androgen receptor (Homo sapiens, UniProt P10275); test: Displacement of [3H]-R1881 from androgen receptor (unknown origin) expressed in human HeLa cells harboring AR3A-PSA-(ARE)4-Luc13 incubated for 2 hrs by scintillation counting; type: cell-based
T5 sequence (P10275 whole entry): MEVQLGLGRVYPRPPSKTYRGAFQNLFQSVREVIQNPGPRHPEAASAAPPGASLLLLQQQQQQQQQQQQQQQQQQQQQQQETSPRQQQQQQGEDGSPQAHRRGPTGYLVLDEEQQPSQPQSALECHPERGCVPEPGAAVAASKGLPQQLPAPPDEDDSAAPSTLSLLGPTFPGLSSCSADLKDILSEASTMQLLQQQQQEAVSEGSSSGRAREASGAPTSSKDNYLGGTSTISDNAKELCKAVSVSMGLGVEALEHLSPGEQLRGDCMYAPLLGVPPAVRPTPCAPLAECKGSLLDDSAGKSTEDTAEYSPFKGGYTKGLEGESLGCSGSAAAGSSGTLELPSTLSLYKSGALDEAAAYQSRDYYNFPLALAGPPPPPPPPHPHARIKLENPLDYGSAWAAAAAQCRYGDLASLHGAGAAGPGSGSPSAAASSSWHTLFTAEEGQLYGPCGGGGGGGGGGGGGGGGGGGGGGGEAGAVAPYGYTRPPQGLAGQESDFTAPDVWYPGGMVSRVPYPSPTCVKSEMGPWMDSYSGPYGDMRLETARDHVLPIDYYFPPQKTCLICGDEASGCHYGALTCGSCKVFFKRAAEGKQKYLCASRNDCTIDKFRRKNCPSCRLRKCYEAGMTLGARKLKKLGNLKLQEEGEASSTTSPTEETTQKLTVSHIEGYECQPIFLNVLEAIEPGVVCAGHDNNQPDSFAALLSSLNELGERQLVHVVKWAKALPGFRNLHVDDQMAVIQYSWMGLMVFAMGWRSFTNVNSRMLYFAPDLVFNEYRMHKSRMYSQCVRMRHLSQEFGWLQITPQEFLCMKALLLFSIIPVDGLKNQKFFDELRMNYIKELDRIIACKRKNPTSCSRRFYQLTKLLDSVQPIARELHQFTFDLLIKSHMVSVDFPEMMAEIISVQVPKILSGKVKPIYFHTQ

[9] = target: T5, Androgen receptor; test: Antagonist activity at androgen receptor (unknown origin) expressed in human HeLa cells harboring AR3A-PSA-(ARE)4-Luc13 in presence of DHT by BrightGlo luciferase assay; type: cell-based
[10] = target: Aldo-keto reductase family 1 member B10 (Homo sapiens, UniProt O60218); test: Inhibition of N-terminal His-tagged human AKR1B10 expressed in Escherichia coli BL21 ([…] Plus) competent cells using […] as substrate in presence of NADPH by fluorescence method
Aldo-keto reductase family 1 member B10, sequence (O60218 whole entry): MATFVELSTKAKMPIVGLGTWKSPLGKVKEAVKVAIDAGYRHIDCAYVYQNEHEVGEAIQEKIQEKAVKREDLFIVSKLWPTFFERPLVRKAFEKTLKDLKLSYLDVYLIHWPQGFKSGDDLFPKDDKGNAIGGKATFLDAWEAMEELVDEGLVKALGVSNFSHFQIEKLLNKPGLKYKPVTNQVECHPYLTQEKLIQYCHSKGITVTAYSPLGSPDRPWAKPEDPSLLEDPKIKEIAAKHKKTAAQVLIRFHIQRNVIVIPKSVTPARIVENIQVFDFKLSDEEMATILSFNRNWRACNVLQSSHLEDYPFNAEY

[11] = target: T4, Aldo-keto reductase family 1 member C4; test: Inhibition of N-terminal His-tagged human AKR1C4 expressed in Escherichia coli BL21 ([…] Plus) competent cells using 9,10 -Phenanthrenequinone as substrate in presence of NADPH by fluorescence method
[12] = target: T1, Aldo-keto reductase family 1 member C3; test: Inhibition of N-terminal His-tagged human AKR1C3 expressed in Escherichia coli BL21 ([…] Plus) competent cells using 9,10 -Phenanthrenequinone as substrate in presence of NADPH by fluorescence method
[13] = target: T3, Aldo-keto reductase family 1 member C1; test: Inhibition of N-terminal His-tagged human AKR1C1 expressed in Escherichia coli BL21 ([…] Plus) competent cells using 9,10 -Phenanthrenequinone as substrate in presence of NADPH by fluorescence method
[14] = target: T2, Aldo-keto reductase family 1 member C2; test: Inhibition of N-terminal His-tagged human AKR1C2 expressed in Escherichia coli BL21 ([…] Plus) competent cells using 9,10 -Phenanthrenequinone as substrate in presence of NADPH by fluorescence method
[15] = target: T6, Aldo-keto reductase family 1 member A1 (Homo sapiens, UniProt P14550); test: Inhibition of N-terminal His-tagged human AKR1A1 expressed in Escherichia coli BL21 ([…] Plus) competent cells using D,L-glyceraldehyde as substrate in presence of NADPH by fluorescence method
T6 sequence (P14550 whole entry): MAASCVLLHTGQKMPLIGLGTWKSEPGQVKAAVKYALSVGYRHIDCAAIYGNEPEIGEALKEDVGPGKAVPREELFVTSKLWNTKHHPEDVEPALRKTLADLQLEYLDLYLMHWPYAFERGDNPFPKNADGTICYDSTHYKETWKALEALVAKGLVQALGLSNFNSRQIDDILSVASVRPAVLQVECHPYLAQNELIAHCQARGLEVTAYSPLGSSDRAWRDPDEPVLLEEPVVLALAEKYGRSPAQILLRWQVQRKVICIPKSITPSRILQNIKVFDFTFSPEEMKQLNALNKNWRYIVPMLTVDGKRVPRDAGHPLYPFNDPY

[16] = target: Aldo-keto reductase family 1 member B1 (Homo sapiens, UniProt P15121); test: Inhibition of N-terminal His-tagged human AKR1B1 expressed in Escherichia coli BL21 ([…] Plus) competent cells using D,L-glyceraldehyde as substrate in presence of NADPH by fluorescence method
[17] = target: T2, Aldo-keto reductase family 1 member C2; test: Inhibition of N-terminal His-tagged human AKR1C2 expressed in Escherichia coli BL21 ([…] Plus) competent cells using 9,10-phenanthrenequinone as substrate in presence of NADPH
[18] = target: T3, Aldo-keto reductase family 1 member C1; test: Inhibition of N-terminal His-tagged human AKR1C1 expressed in Escherichia coli BL21 ([…] Plus) competent cells using 9,10-phenanthrenequinone as substrate in presence of NADPH
[19] = target: T1, Aldo-keto reductase family 1 member C3; test: Inhibition of N-terminal His-tagged human AKR1C3 expressed in Escherichia coli BL21([…] Plus) competent cells using 9,10-phenanthrenequinone as substrate in presence of NADPH
[20] = target: T3, Aldo-keto reductase family 1 member C1; test: Inhibition of AKR1C1 (unknown origin) using 9,10-phenanthrenequinone as substrate
[21] = target: T2, Aldo-keto reductase family 1 member C2; test: Inhibition of AKR1C2 (unknown origin) using 9,10-phenanthrenequinone as substrate

IC50 [2]: 24.7 µM
IC50 [3]: 0.086 µM
IC50 [4]: 41.3 µM
IC50 [5]: 30.6 µM
Compound: O=C(O)c1cccc(Nc2ccc([N+](=O)[O-])c3ccccc23)c1

IC50 [8]: 80 µM
IC50 [9]: 2.1 µM
Compound: Oc1ccc2c(O)ncc(-c3cc(F)c(F)c(F)c3)c2c1

IC50 [2]: 19.5 µM
IC50 [3]: 0.082 µM
IC50 [4]: 50 µM
IC50 [5]: 17.7 µM
Compound: CC(=O)c1ccc(Nc2cccc(C(=O)O)c2)c2ccccc12

IC50 [10]: 0.39 µM
IC50 [11]: 8.25 µM
IC50 [12]: 3.71 µM
IC50 [13]: 29.2 µM
IC50 [14]: 25.8 µM
IC50 [15]: > 50 µM
IC50 [16]: 3.56 µM
Compound: O=C(/C=C/c1ccc(O)c(O)c1)OCCc1ccccc1 [CAFFEIC ACID PHENETHYL ESTER]

IC50 [20]: 96 µM
IC50 [21]: 50 µM
Compound: COc1ccc2c(c1)c(CC(=O)O)c(C)n2C(=O)c1ccc(Cl)cc1 [INDOMETHACIN]

Continued, molecule first:

Compound: CC(C)C(CO)Nc1nc(Nc2cccc(Cl)c2)c2ncn(C(C)C)c2n1 (stereo not given)
IC50 [1]: 6.58 µM
Ki [1]: 5.5 µM

Compound: CCCCC/C=C/C/C=C/C/C=C/C/C=C/CCCC(=O)O
IC50 [6]: 0.69 µM
IC50 [7]: 0.84 µM

Compound: O=C(O)c1cccc(Nc2ccc([N+](=O)[O-])c3c([N+](=O)[O-])cccc23)c1
IC50 [2]: 15.6 µM
IC50 [3]: 0.053 µM
IC50 [4]: 15.4 µM
IC50 [5]: 5.34 µM

Compound: CCC(CO)Nc1nc(NCc2ccccc2)c2ncn(C(C)C)c2n1 (stereo not drawn) [(RS)-ROSCOVITINE]
IC50 [1]: 2.15 µM
Ki [1]: 1.4 µM

Compound: COc1ccc2[nH]c(C(=O)N3CCC(CC(C)(C)O)CC3)cc2c1 [ASP-9521]
IC50 [9]: 300 µM

Compound: Cc1ccc(S(=O)(=O)NC(=O)NN2CC3CCCC3C2)cc1 (stereo not given) [GLICLAZIDE]
IC50 [17]: > 1000 µM
IC50 [18]: > 300 µM
IC50 [19]: 19.6 µM

Compound: CCC1=C(C)CN(C(=O)NCCc2ccc(S(=O)(=O)NC(=O)N[C@H]3CC[C@H](C)CC3)cc2)C1=O [GLIMEPIRIDE]
IC50 [17]: > 50 µM
IC50 [18]: 6.86 µM
IC50 [19]: 0.85 µM

Compound: CCCCC/C=C\C/C=C\CCCCCCCC(=O)O [LINOLEIC ACID]
IC50 [6]: 0.69 µM
IC50 [7]: 0.69 µM

Compound: CCCCCCCCOC(=O)c1cc(O)c(O)c(O)c1 [OCTYL_GALLATE]
IC50 [10]: > 100 µM
IC50 [11]: 4.04 µM
IC50 [12]: 2.56 µM
IC50 [13]: 5.48 µM
IC50 [14]: 9.28 µM
IC50 [15]: > 100 µM
IC50 [16]: > 100 µM
